Reference: paper PMC11910216, “Targeting ubiquitin-independent proteasome with small molecule increases susceptibility in pan-KRAS–mutant cancer models” (The Journal of Clinical Investigation, 2025)
“And” between values parts separate entries of the source, which are not always exact repeats. Equal values may be shown once.

Tests used:
[1] = test system: 1459 cells; experiment: Cell viability assay (CCK-8); format: cell-based; conditions: Homo sapiens; 1459, Colon; Supplemental Table 4
Protocol: Cells were seeded into 96-well plates at a density of 1,500 cells per well. […] Upon measurement, 10 μL CCK-8 (Yeasen, 40203ES80) mixed with 100 μL serum-free medium was added to each well and incubated for 1 hour at 37°C. Plates were shaken, and optical density values were determined at 450 nm using a microplate reader (BioTek, Synergy Neo2).

[2] = molecular target: REGγ-20S proteasome (Homo sapiens, UniProt P25786+P25788); experiment: Peptidyl substrate LLVY/LRR degradation assay, REGγ-activated 20S proteasome; format: biochemical
Protocol: (§1) The reaction mixture contained the indicated combinations of 20S proteasome (0.125 μg), 11S (0.0625 μg), and RLY01 (20 μM). This mixture was incubated on ice for 45 minutes in buffer (10 mM Tris-HCl, 10 mM KCl, 4% glycerol, 1 mM DTT). Then, peptidyl substrates (Suc-LLVY-AMC/Boc-LRR-AMC) were incubated for 15–20 minutes in the mixture in a 37°C thermostatic fluorescence spectrophotometer. The amount of AMC during the reaction was measured fluorometrically (excitation of 360 nm and emission of 460 nm for AMC) with a fluorescence spectrophotometer. Proteasome activity was assayed in the presence of the indicated peptides and proteins and normalized by setting to 100% the value obtained in the presence of 20S proteasome and 11S. The respective final concentrations of the 20S proteasome and REGγ or REGα were set up so that the peptidase activities were not fully activated (i.e., 11S was limiting in the assay). At the final concentration used for RLY01, the inhibitory effect was maximal. Peptides used were substrates of the following peptidase activities of the 20S proteasome: chymotrypsin-like activity, Suc-LLVY-AMC (LLVY); trypsin-like activity, Boc-LRR-AMC (LRR).

[3] = test system: H441 cells; experiment: Cell viability assay (CCK-8); format: cell-based; conditions: Homo sapiens, NCI-H441; H441, Lung; Supplemental Table 4
Protocol: (§5) Cells were seeded into 96-well plates at a density of 1,500 cells per well. Cells were then cultivated at 37°C for different periods (0 hours, 24 hours, 48 hours, 72 hours, 96 hours). Upon measurement, 10 μL CCK-8 (Yeasen, 40203ES80) mixed with 100 μL serum-free medium was added to each well and incubated for 1 hour at 37°C. Plates were shaken, and optical density values were determined at 450 nm using a microplate reader (BioTek, Synergy Neo2).

[4] = test system: KRAS-mutant cells; experiment: Apoptosis, annexin V and propidium iodide flow cytometry; format: cell-based, human; conditions: 48 hours; concentration-dependent; versus untreated control
Protocol: (§2) The Apoptosis Detection Kit (MultiSciences Biotech Co. Ltd.) was used to detect cell death according to the manufacturer’s protocol. After RLY01 treatment, both attached and floating cells were harvested, washed with PBS, suspended in binding buffer, stained in annexin V–allophycocyanin (APC) and propidium iodide (PI), and analyzed by flow cytometry. For each experiment, 1 × 10^6 cells/mL were analyzed by the flow cytometer (BD Biosciences) and analyzed with FlowJo v10.8.1 (BD Biosciences).

[5] = test system: H358 cells; experiment: Colony formation assay, RLY01 and AMG510; format: cell-based, human
Protocol: Cells were equally seeded into 12-well plates at a density of 2,000 cells per well. Cultivated for 6–10 days, cells were fixed with 4% polyoxymethylene and stained with 0.2% crystal violet. Images of stained colonies were taken, and the numbers of the colonies were recorded and compared within different groups. Each experiment was representative of at least 3 independent experiments. […]
by using CompuSyn software (Version 1). The averages and error bars represent the mean ± SEM from three independent experiments. (E-H) Representative colony formation images of Calu1, Calu1- KRASG13D and Calu1- KRASY96D cells (E) and H358, H358- KRASG13D and H358- KRASY96D cells (G) cell with or without RLY01 and AMG510 treatment. The relative viability of cultured colonies in these cells (mentioned in E and G) are shown in F and H. The percent cell viability is relative to the untreated controls. Each value represents mean ± SEM (n = 3). *p < 0.05, **p < 0.01, ***p < 0.001, ****p < 0.0001; p values were measured by two-way ANOVA with Tukey’s multiple-comparisons test.

[6] = molecular target: REGα-activated 20S proteasome (Homo sapiens, UniProt P25786+P25788); experiment: Peptidyl substrate LLVY/LRR degradation assay, REGα-activated 20S proteasome; format: biochemical; conditions: 20S REGα
Protocol: as §1

[7] = test system: HCT116-WT cells; experiment: Colony formation assay; format: cell-based, human
Protocol: (§3) Cells were equally seeded into 12-well plates at a density of 2,000 cells per well. Cultivated for 6–10 days, cells were fixed with 4% polyoxymethylene and stained with 0.2% crystal violet. Images of stained colonies were taken, and the numbers of the colonies were recorded and compared within different groups. Each experiment was representative of at least 3 independent experiments.

[8] = test system: Calu1 cells; experiment: Colony formation assay; format: cell-based, human
Protocol: as §3

[9] = test system: HCT116-shREGγ cells; experiment: Colony formation assay; format: cell-based, human; conditions: for relative colony formation: HCT116-KO
Protocol: as §3

[10] = test system: LoVo cells; experiment: Cell viability assay (CCK-8); format: cell-based; conditions: Homo sapiens; LoVo (KRAS-MUT); 72 hours
Protocol: as §5

[11] = test system: H460 cells; experiment: Apoptosis, annexin V and propidium iodide flow cytometry; format: cell-based, human; parameters: key: % of apoptotic (Annexin V positive) cells
Protocol: as §2
(§4) Supplemental Figure 8. RLY01 suppresses the clonogenic growth and induces cell apoptosis, related to F i g u re 6. (A) Representative colony formation images after treatment with RLY01 at their respective 1/4 IC50 (Low), IC50 (High) in HCT116- WT, HCT116-shREGγ cells. (B) H460 and Capan -2 (KRAS-MUT) cells were treated with RLY01 for 48 h, and the percentage of apoptotic cells (Annexin positive) was determined by Annexin- V and propidium iodide staining. Each value represents mean ± SEM (n = 3). ****p < 0.0001; p values were measured by two-way ANOVA with Tukey’s multiple-comparisons test.

[12] = test system: Capan-2 cells; experiment: as above; format: cell-based, human; parameters: key: % of apoptotic (Annexin V positive) cells
Protocol: as §2, §4

[13] = test system: RKO cells; experiment: Cell viability assay (CCK-8); format: cell-based; conditions: Homo sapiens, Colon, Supplemental Table 4
Protocol: as §5

[14] = molecular target: T1, interaction between REGγ and α7 (Homo sapiens, UniProt P25786+P25788); experiment: Co-IP of REGγ and α7 with RLY01; format: biochemical; conditions: FLAG-REGγ in HCT116-KO cell lysates, 12 hours in vitro
T1 construct: expressed in transfected cells; host or cells: HCT116-KO (REGγ knockout) cells, lysate treated in vitro
Protocol: Cells were washed with PBS and lysed with RIPA lysis buffer (50 mM Tris-HCl [pH 7.5], 150 mM NaCl, 1% NP-40, and 0.1% SDS). Cell lysates were then centrifuged for 20 minutes at 13,400g at 4°C. To immunoprecipitate protein, 10% of supernatant was reserved as the input, and the rest was incubated with beads for 6–12 hours at 4°C. The beads were washed 3 times with washing buffer (150 mM NaCl, 50 mM Tris-HCl [pH 7.5], 10% glycerol, 1 mM EDTA). After centrifugation, the beads were boiled in SDS loading buffer, followed by Western blotting.

COc1ccc(C2C(C#N)=C(N)Oc3[nH]ncc32)cc1COc1ccc(Cl)cc1 (centres unmarked) [RLY01]
IC50 [1]: 32.5 µM
LRR Activity(%) ([2]; 20S REGγ): 48.0118% and 60.8247% and 54.1974%
Boc-LRR-AMC (LRR) degradation, trypsin-like activity ([2]; cell-free, 11S-activated 20S proteasome, RLY01 20 μM): partially inhibit
Suc-LLVY-AMC (LLVY) degradation, chymotrypsin-like activity ([2]; cell-free, 11S-activated (REGγ/α) 20S proteasome, RLY01 20 μM): essentially insensitive
IC50 [3]: 14 µM
apoptosis (number of apoptotic cells) [4]: markedly induced apoptosis
colony formation relative to DMSO [5]: 21.916 and 27.6938 and 25.4026
LLVY Activity(%) [6]: 92.6533% and 97.2289% and 95.2129%
relative colony formation ([7]; High): 0.324 and 0.59 and 0.485
relative colony formation ([7]; Low): 0.846 and 0.917 and 0.708
colony formation relative to DMSO [8]: 30.0518 and 30.7995 and 28.24
relative colony formation ([9]; High): 0.122 and 0.142 and 0.104
relative colony formation ([9]; Low): 0.118 and 0.141 and 0.078
clonogenic growth suppression ([9]; HCT116-shREGγ versus HCT116-WT): reversed by REGγ silencing
IC50 [10]: 11.8 µM
apoptosis (flow cytometry) ([11]; H460, High dose): 57.16 and 57.98 and 55.96
apoptosis (flow cytometry) ([11]; H460, Low dose): 26.1 and 25.06 and 25.52
apoptosis (flow cytometry) ([11]; H460, Medium dose): 39.95 and 39.09 and 39.14
apoptosis (flow cytometry) ([12]; Capan-2, High dose): 43 and 42.55 and 42.1
apoptosis (flow cytometry) ([12]; Capan-2, Low dose): 8.92 and 9.03 and 9.4
apoptosis (flow cytometry) ([12]; Capan-2, Medium dose): 14.03 and 14.04 and 13.83
IC50 [13]: 13.1 µM
interaction between REGγ and α7 (co-IP) [14]: decreased the interaction between REGγ and α7 in a concentration-dependent manner
